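Each compound was tested at five concentrations against cells in 96-well plates for 48 hours. GI50 marks 50% less growth. TGI is the concentration that stops growth completely.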
Columns and labels:
Experiment in all cases: NCI-60 cell line screen, 48 h
HOP-62 NSCLC = test system: HOP-62 NSCLC
ACHN renal = test system: ACHN renal
786-0 renal = test system: 786-0 renal
IGROV1 ovarian = test system: IGROV1 ovarian
K-562 leukemia = test system: K-562 leukemia
RXF 393 renal = test system: RXF 393 renal
MDA-MB-231 breast = test system: MDA-MB-231 breast
SK-MEL-2 melanoma = test system: SK-MEL-2 melanoma
OVCAR-4 ovarian = test system: OVCAR-4 ovarian
SR leukemia = test system: SR leukemia

For `C#C[C@]1(O)CC[C@H]2[C@@H]3CC=C4c5sc(N=C(N)N)nc5CC[C@]4(C)[C@H]3CC[C@@]21C`, the GI50 (HOP-62 NSCLC) was 0.984 µM, the TGI (HOP-62 NSCLC) was 2.62 µM and the GI50 (ACHN renal) was 0.971 µM. The TGI (ACHN renal) was 2.21 µM, the GI50 (786-0 renal) was 0.453 µM and the TGI (786-0 renal) was 1.81 µM. It also gave a GI50 (IGROV1 ovarian) of 1.03 µM, a TGI (IGROV1 ovarian) of 2.41 µM and a GI50 (K-562 leukemia) of 0.354 µM. It also gave a TGI (K-562 leukemia) of 1.35 µM, a GI50 (RXF 393 renal) of 0.141 µM and a TGI (RXF 393 renal) of 0.555 µM. It also gave a GI50 (MDA-MB-231 breast) of 1.14 µM, a TGI (MDA-MB-231 breast) of 2.66 µM and a GI50 (SK-MEL-2 melanoma) of 0.787 µM. It also gave a TGI (SK-MEL-2 melanoma) of 2.36 µM, a GI50 (OVCAR-4 ovarian) of 1.33 µM and a TGI (OVCAR-4 ovarian) of 2.75 µM. It also gave a GI50 (SR leukemia) of 0.348 µM and a TGI (SR leukemia) of 1.98 µM.

`COc1cc(CSc2nc3ccc(C)cc3c(=O)n2Cc2ccccc2)cc(OC)c1OC` was tested, and the GI50 (HOP-62 NSCLC) was 3.21 µM, the TGI (HOP-62 NSCLC) was 21.4 µM and the GI50 (ACHN renal) was 3.89 µM. For the same molecule, the TGI (ACHN renal) was 55.7 µM, the GI50 (786-0 renal) was 7.49 µM and the TGI (786-0 renal) was 65.6 µM. The GI50 (IGROV1 ovarian) was 3.47 µM, the TGI (IGROV1 ovarian) was greater than 100 µM and the GI50 (K-562 leukemia) was 0.624 µM. It also gave a TGI (K-562 leukemia) greater than 100 µM, a GI50 (RXF 393 renal) of 2.29 µM and a TGI (RXF 393 renal) of 9.75 µM. For the same molecule, the GI50 (MDA-MB-231 breast) was 3.26 µM, the TGI (MDA-MB-231 breast) was greater than 100 µM and the GI50 (SK-MEL-2 melanoma) was 4.05 µM. The TGI (SK-MEL-2 melanoma) was 43.1 µM, the GI50 (OVCAR-4 ovarian) was 5.01 µM and the TGI (OVCAR-4 ovarian) was 63.4 µM. The GI50 (SR leukemia) was 0.372 µM and the TGI (SR leukemia) was 11.1 µM.

With `CC(C)=CCc1c(O)cc(/C=C/c2cc(O)c3c(c2)C[C@@H]2C(C)(C)[C@H](O)[C@H](O)C[C@@]2(C)O3)cc1O` the GI50 (HOP-62 NSCLC) was 1.38 µM, the TGI (HOP-62 NSCLC) was greater than 7.95 µM and the GI50 (ACHN renal) was 0.526 µM. The TGI (ACHN renal) was greater than 8.74 µM, the GI50 (786-0 renal) was less than 0.001 µM and the TGI (786-0 renal) was greater than 6.26 µM. The GI50 (IGROV1 ovarian) was 1.25 µM, the TGI (IGROV1 ovarian) was greater than 10 µM and the GI50 (K-562 leukemia) was 0.0154 µM. For the same molecule, the TGI (K-562 leukemia) was greater than 9.25 µM, the GI50 (RXF 393 renal) was less than 0.001 µM and the GI50 (MDA-MB-231 breast) was 1.66 µM. It also gave a TGI (MDA-MB-231 breast) greater than 10 µM, a GI50 (SK-MEL-2 melanoma) of 0.0444 µM and a GI50 (OVCAR-4 ovarian) of 0.831 µM. For the same molecule, the TGI (OVCAR-4 ovarian) was 4.08 µM, the GI50 (SR leukemia) was less than 0.001 µM and the TGI (SR leukemia) was greater than 10 µM.

In the case of `COc1ccc(O)c(C(=O)c2ccc(C(=O)O[C@@H]3CCCNC[C@H]3NC(=O)c3ccncc3)cc2)c1F`, the GI50 (HOP-62 NSCLC) was 0.514 µM, the TGI (HOP-62 NSCLC) was greater than 25 µM and the GI50 (ACHN renal) was 1.49 µM. The TGI (ACHN renal) was greater than 25 µM, the GI50 (786-0 renal) was 0.403 µM and the TGI (786-0 renal) was greater than 25 µM. The GI50 (IGROV1 ovarian) was 0.493 µM, the TGI (IGROV1 ovarian) was greater than 25 µM and the GI50 (K-562 leukemia) was 0.723 µM. It also gave a TGI (K-562 leukemia) greater than 25 µM, a GI50 (RXF 393 renal) of 0.162 µM and a TGI (RXF 393 renal) of 0.839 µM. For the same molecule, the GI50 (MDA-MB-231 breast) was greater than 10.3 µM, the TGI (MDA-MB-231 breast) was greater than 25 µM and the GI50 (SK-MEL-2 melanoma) was 0.89 µM. For the same molecule, the TGI (SK-MEL-2 melanoma) was 16.6 µM, the GI50 (OVCAR-4 ovarian) was 7.9 µM and the TGI (OVCAR-4 ovarian) was greater than 25 µM. The GI50 (SR leukemia) was 0.146 µM and the TGI (SR leukemia) was greater than 5.21 µM.

With `Cc1ccc(NC(=O)/C(CC(=O)c2c[n+](=O)c3ccccc3n2O)=N\NC(=O)C[n+]2ccccc2)cc1` the TGI (HOP-62 NSCLC) was greater than 100 µM, the TGI (ACHN renal) was greater than 100 µM and the TGI (786-0 renal) was greater than 100 µM. The TGI (IGROV1 ovarian) was greater than 100 µM, the TGI (K-562 leukemia) was greater than 100 µM and the TGI (RXF 393 renal) was greater than 100 µM. It also gave a TGI (SK-MEL-2 melanoma) greater than 100 µM, a TGI (OVCAR-4 ovarian) greater than 100 µM and a TGI (SR leukemia) greater than 100 µM.

Work on `CCc1c2c(nc3cc4c(cc13)OCO4)-c1cc3c(c(=O)n1C2)COC(=O)[C@@]3(CC)OC(=O)CN` yielded a GI50 (HOP-62 NSCLC) of less than 0.01 µM, a TGI (HOP-62 NSCLC) of less than 0.01 µM and a GI50 (ACHN renal) of less than 0.01 µM. For the same molecule, the TGI (ACHN renal) was less than 0.01 µM, the GI50 (786-0 renal) was less than 0.01 µM and the TGI (786-0 renal) was less than 0.0127 µM. It also gave a GI50 (K-562 leukemia) of less than 0.01 µM, a TGI (K-562 leukemia) of 5.65 µM and a GI50 (RXF 393 renal) of less than 0.01 µM. It also gave a TGI (RXF 393 renal) of less than 0.0324 µM, a GI50 (MDA-MB-231 breast) of 0.195 µM and a TGI (MDA-MB-231 breast) of 15 µM. The GI50 (SK-MEL-2 melanoma) was 0.0954 µM, the TGI (SK-MEL-2 melanoma) was 0.998 µM and the GI50 (OVCAR-4 ovarian) was 0.0244 µM. It also gave a TGI (OVCAR-4 ovarian) of 0.711 µM, a GI50 (SR leukemia) of less than 0.01 µM and a TGI (SR leukemia) of less than 0.0389 µM.

With `CCOC(=O)/N=C(\N)SCc1ccccc1` the TGI (HOP-62 NSCLC) was greater than 100 µM, the TGI (ACHN renal) was greater than 100 µM and the TGI (786-0 renal) was greater than 100 µM. For the same molecule, the TGI (IGROV1 ovarian) was greater than 100 µM, the TGI (K-562 leukemia) was greater than 100 µM and the TGI (RXF 393 renal) was greater than 100 µM. For the same molecule, the TGI (SK-MEL-2 melanoma) was greater than 100 µM, the TGI (OVCAR-4 ovarian) was greater than 100 µM and the TGI (SR leukemia) was greater than 100 µM.

With `O=C(COc1cccc(/C=C2\COc3ccccc3C2=O)c1)Nc1nccs1` the GI50 (HOP-62 NSCLC) was 4.11 µM, the TGI (HOP-62 NSCLC) was 15.9 µM and the GI50 (ACHN renal) was 1.86 µM. For the same molecule, the TGI (ACHN renal) was 3.55 µM, the GI50 (786-0 renal) was 2.05 µM and the TGI (786-0 renal) was 4.14 µM. For the same molecule, the GI50 (K-562 leukemia) was 1.44 µM, the TGI (K-562 leukemia) was 29.2 µM and the GI50 (MDA-MB-231 breast) was 3.55 µM. For the same molecule, the TGI (MDA-MB-231 breast) was 17 µM, the GI50 (SK-MEL-2 melanoma) was 1.88 µM and the TGI (SK-MEL-2 melanoma) was 5.05 µM. The GI50 (OVCAR-4 ovarian) was 3.99 µM, the TGI (OVCAR-4 ovarian) was 14.3 µM and the GI50 (SR leukemia) was 1.03 µM. The TGI (SR leukemia) was 2.76 µM.

`O=C1/C(=C/c2ccccc2Cl)N=C(c2ccccc2)N1Cc1ccco1` gave a GI50 (HOP-62 NSCLC) greater than 100 µM, a TGI (HOP-62 NSCLC) greater than 100 µM and a GI50 (ACHN renal) greater than 100 µM. It also gave a TGI (ACHN renal) greater than 100 µM, a GI50 (786-0 renal) of 34.7 µM and a TGI (786-0 renal) greater than 100 µM. For the same molecule, the GI50 (K-562 leukemia) was 24.2 µM, the TGI (K-562 leukemia) was greater than 100 µM and the GI50 (RXF 393 renal) was 16.4 µM. For the same molecule, the TGI (RXF 393 renal) was 93 µM, the GI50 (MDA-MB-231 breast) was 19.7 µM and the TGI (MDA-MB-231 breast) was greater than 100 µM. For the same molecule, the GI50 (SK-MEL-2 melanoma) was 28.1 µM, the TGI (SK-MEL-2 melanoma) was 55.1 µM and the GI50 (SR leukemia) was 26.2 µM. It also gave a TGI (SR leukemia) greater than 100 µM.

Molecule `ClCCN(CCCl)c1ccc(-n2cnc3c(Cl)ncnc32)cc1` has a GI50 (HOP-62 NSCLC) of 6.94 µM, a TGI (HOP-62 NSCLC) of 20.2 µM and a GI50 (ACHN renal) of 1.84 µM. For the same molecule, the TGI (ACHN renal) was 3.54 µM, the GI50 (786-0 renal) was 14 µM and the TGI (786-0 renal) was 28.4 µM. It also gave a GI50 (K-562 leukemia) of 3.24 µM, a TGI (K-562 leukemia) of 9.92 µM and a GI50 (RXF 393 renal) of 1.86 µM. The TGI (RXF 393 renal) was 3.33 µM, the GI50 (MDA-MB-231 breast) was 3.28 µM and the TGI (MDA-MB-231 breast) was 11.1 µM. The GI50 (SK-MEL-2 melanoma) was 14 µM, the TGI (SK-MEL-2 melanoma) was 27.6 µM and the GI50 (OVCAR-4 ovarian) was 1.85 µM. For the same molecule, the TGI (OVCAR-4 ovarian) was 3.33 µM, the GI50 (SR leukemia) was 2.06 µM and the TGI (SR leukemia) was 6.55 µM.

For `COC(=O)c1ccccc1NC(=O)/C(=N\NC(C)(C)C)C(C#N)c1nc(-c2ccc([N+](=O)[O-])cc2)cs1` (stereo not drawn), the TGI (ACHN renal) was greater than 100 µM, the TGI (786-0 renal) was greater than 100 µM and the TGI (IGROV1 ovarian) was greater than 100 µM. For the same molecule, the TGI (K-562 leukemia) was greater than 100 µM, the TGI (RXF 393 renal) was greater than 100 µM and the TGI (MDA-MB-231 breast) was greater than 100 µM. The TGI (SK-MEL-2 melanoma) was greater than 100 µM, the TGI (OVCAR-4 ovarian) was greater than 100 µM and the TGI (SR leukemia) was greater than 100 µM.

Source: PubChem BioAssay (NCI)
